From patent US20070254332A1, “Method for Readily Detecting Class C Beta-Lactamase-Producing Bacteria” (JAPAN HEALTH SCIENCES FOUNDATION, priority 2003, published 2007)
≈ marks a conversion by molar mass, not a printed value.

Legend:
Type in all cases: cell-based
C. freundi HKY543 = experiment: Disk test, CAZ disk versus CAZ + APB disk (second aspect); conditions: overnight culturing
Protocol: (§2) In the same manner as in Embodiment 1, the test bacterium was inoculated onto a Mueller-Hinton agar medium, and KB disks (6 mm in diameter) of CAZ were positioned at least 3 cm apart center-on-center. […] After overnight culturing, the diameters of the growth inhibitory zones around the two CAZ disks were measured.

E. cloacae HKY226 [1] = experiment: as above; conditions: overnight culturing
Protocol: as §2

[2] = test system: K. pneumoniae SHV-12 Class A; experiment: as above; conditions: overnight culturing
Protocol: as §2

[3] = test system: Klebsiella pneumoniae KP1 15 (IMP-1: Class B); experiment: MIC by trace quantity liquid dilution method
[4] = test system: Klebsiella pneumoniae HKY402 (SHV-12: Class A); experiment: MIC by trace quantity liquid dilution method
[5] = test system: K. pneumoniae NCB02189 DHA-1 + CTX-M9; experiment: MIC by trace quantity liquid dilution method; conditions: Klebsiella pneumoniae
Protocol: (§1) Following overnight culturing, the MIC was measured.

C. freundii HKY543 = experiment: MIC by trace quantity liquid dilution method; conditions: Citrobacter freundii
Protocol: as §1

P. aeruginosa NCB03-192 = experiment: MIC by trace quantity liquid dilution method; conditions: Pseudomonas aeruginosa, NCB03192
Protocol: as §1

E. coli NS12 CMY-2 = experiment: MIC by trace quantity liquid dilution method; conditions: Escherichia coli, NS12CMY2
Protocol: as §1

E. cloacae HKY226 [6] = experiment: MIC by trace quantity liquid dilution method; conditions: Enterobacter cloacae
Protocol: as §1

[7] = test system: Klebsiella pneumoniae NU2936 (MOX-1: Class C); experiment: MIC by trace quantity liquid dilution method
Protocol: as §1

S. marcescens S94 = experiment: MIC by trace quantity liquid dilution method; conditions: Serratia marcescens
Protocol: as §1

Which results are given for `CC(C)(O/N=C(\C(=O)N[C@@H]1C(=O)N2C(C(=O)[O-])=C(C[n+]3ccccc3)CS[C@H]12)c1csc(N)n1)C(=O)O` [CAZ, ceftazidime]?
Inhibitory zone around the disk (C. freundi HKY543): A small inhibitory zone was observed; Inhibitory zone around the disk (E. cloacae HKY226 [1]): No inhibitory zone was observed around; Inhibitory zone around the disk [2]: No inhibitory zones observed around; MIC [3]: 256 µg/mL (≈ 468 µM); MIC [4]: > 512 µg/mL; MIC [5]: 64 µg/mL (≈ 117 µM); MIC (C. freundii HKY543): 64 µg/mL (≈ 117 µM); MIC (P. aeruginosa NCB03-192): 16 µg/mL (≈ 29.3 µM); MIC (E. coli NS12 CMY-2): 64 µg/mL (≈ 117 µM); MIC (E. cloacae HKY226 [6]): 256 µg/mL (≈ 468 µM); MIC [7]: 64 µg/mL (≈ 117 µM); MIC (S. marcescens S94): 64 µg/mL (≈ 117 µM)
